According to patent US11166924B2, “N-methyl-d-aspartate receptor allosteric modulators and methods for their use” (Qingdao Primedicine Pharmaceutical Company, Ltd., priority 2016, dated 2021):

Tests used:
[1] = target: T1, GluN1/GluN2B NMDARs (Rattus norvegicus, UniProt P35439+Q00960); assay: Whole-cell patch clamp recordings in HEK293 cells transfected with GluN1/GluN2B; type: cell-based; details: for activation at 50 µM: 50 μM (footnote *)
T1 construct: expressed in transfected cells; host or cells: HEK293

[2] = target: T2, GluN1/GluN2A NMDARs (Rattus norvegicus, UniProt P35439+Q00959); assay: Whole-cell patch clamp recordings in HEK293 cells transfected with GluN1/GluN2A; type: cell-based; details: for activation at 100 µM / activation at 50 µM: HEK293, Table 2, read-out: Normalized Potentiation GluN1/GluN2A; for activation at 50 µM: 50 μM (footnote *); for Normalized Potentiation / EC50: Table 1; for Normalized Potentiation: positive modulation of GluN1/GluN2A NMDARs, concentration not given; for EC50: potentiation, read-out: EC50
T2 construct: expressed in transfected cells; host or cells: HEK293
Experimental: Cells were transfected with a combination of pcDNA3-CMV expression vectors, each of which expressed one of the rat recombinant (GluN2AWT, GluN1WT, GluN2BWT) subunits. The sequences of all plasmids were confirmed by automated DNA sequencing. Human Embryonic Kidney 293 (HEK293 cells) were cultured in Dulbecco's Modified Eagle's Medium (DMEM) (Invitrogen) supplemented with 10% fetal bovine serum (FBS). When HEK293 cells achieved 90% confluence, plasmids of either GluN1 & GluN2A or GluN1 & GluN2B were co-transfected into the cells using Lipofectamine 2000 (Invitrogen, 11668019) according to manufacturer's instructions. HEK293 cells were then maintained in the 37° C. incubator with […] and 5% CO2 for 48 hrs before being used in experiments. The transfection ratios for the NMDAR subunit combinations were all 1:1 (GluN1/GluN2A or GluN1/GluN2B).
Whole cell patch-clamp recordings were performed under voltage-clamp mode using an Axopatch 200B or 1D patch-clamp amplifier (Molecular Devices). Whole-cell currents were recorded at a holding potential of −60 mV unless indicated elsewhere, and signals were filtered at 2 kHz, digitized at 10 kHz (Digidata 1322A). Recording pipettes (3-5 MΩ) were filled with intracellular solution containing (mM): CsCl 140, HEPES 10, Mg-ATP 4, QX-314 5, pH 7.20; osmolarity, 290-295 mOsm. BAPTA (10 mM) was added in the intracellular solution (unless otherwise specified). The coverslips were continuously superfused with extracellular solution containing (mM): NaCl 140, KCl 5.4, HEPES 10, CaCl2 1.3, glucose 20, pH 7.4; osmolarity, 305-315 mOsm. NMDA-induced currents were applied by NMDA through perfusion fast-step (Warner Instruments). With perfusion fast-step system, NMDA application was achieved by using a two-square barrel glass tubing and depending on the age of the cultured neurons, CNQX (10 μM), TTX (0.5 μM) or BIC (10 μM) were added in the extracellular solution to minimize the activation of ionotropic glutamate receptors and voltage-gated sodium channels, respectively. All experiments were performed at room temperature. Recordings from at least six HEK293 cells/neurons were performed for all active compounds. Data were pooled among HEK293 cells or primary neurons and composite dose-response data were fitted by the equation Percentage Response=100×Relative Efficacy/[1+(EC50/Concentration)nH], where EC50 is the concentration of agonist that produces a half-maximal response, relative efficacy is the response at maximally effective concentration relative to the maximal response of glutamate, and nH is the Hill slope.
GluN1/GluN2A NMDAR subtypes are an attractive target for positive allosteric modulation. The present inventors employed in silico computational drug discovery methods to conduct a virtual screen of purchasable lead-like compounds from the ZINC database (Irwin, J., et al. Abstr Pap Am Chem Soc (2005) 230:U1009) and some synthetic compounds to identify potential GluN1/GluN2A-NMDAR modulators. The in silico methods included large-scale docking against the interstice interface of the GluN1/GluN2A heterodimer and consensus scoring to select compounds for empirical testing. Candidate compounds were further screened by using GluN1/GluN2A transiently transfected in human embryonic kidney (HEK293) cells and tested by whole-cell patch clamp recordings.
The inventors used transiently transfected HEK293 cells expressing either GluN1/GluN2A or GluN1/GluN2B NMDARs and tested by whole-cell voltage patch clamp recordings to see whether selected compounds were controlling the subtype selectivity profile of the drugs.
Whole-cell patch clamp recordings were performed to measure glutamate evoked currents with chloride-based pipette solutions at a holding potential of −60 mV.

[3] = HEK293, Table 2, read-out: Normalized Potentiation GluN1/GluN2B

T1 sequence (Q00960 27-1482, other chains not shown): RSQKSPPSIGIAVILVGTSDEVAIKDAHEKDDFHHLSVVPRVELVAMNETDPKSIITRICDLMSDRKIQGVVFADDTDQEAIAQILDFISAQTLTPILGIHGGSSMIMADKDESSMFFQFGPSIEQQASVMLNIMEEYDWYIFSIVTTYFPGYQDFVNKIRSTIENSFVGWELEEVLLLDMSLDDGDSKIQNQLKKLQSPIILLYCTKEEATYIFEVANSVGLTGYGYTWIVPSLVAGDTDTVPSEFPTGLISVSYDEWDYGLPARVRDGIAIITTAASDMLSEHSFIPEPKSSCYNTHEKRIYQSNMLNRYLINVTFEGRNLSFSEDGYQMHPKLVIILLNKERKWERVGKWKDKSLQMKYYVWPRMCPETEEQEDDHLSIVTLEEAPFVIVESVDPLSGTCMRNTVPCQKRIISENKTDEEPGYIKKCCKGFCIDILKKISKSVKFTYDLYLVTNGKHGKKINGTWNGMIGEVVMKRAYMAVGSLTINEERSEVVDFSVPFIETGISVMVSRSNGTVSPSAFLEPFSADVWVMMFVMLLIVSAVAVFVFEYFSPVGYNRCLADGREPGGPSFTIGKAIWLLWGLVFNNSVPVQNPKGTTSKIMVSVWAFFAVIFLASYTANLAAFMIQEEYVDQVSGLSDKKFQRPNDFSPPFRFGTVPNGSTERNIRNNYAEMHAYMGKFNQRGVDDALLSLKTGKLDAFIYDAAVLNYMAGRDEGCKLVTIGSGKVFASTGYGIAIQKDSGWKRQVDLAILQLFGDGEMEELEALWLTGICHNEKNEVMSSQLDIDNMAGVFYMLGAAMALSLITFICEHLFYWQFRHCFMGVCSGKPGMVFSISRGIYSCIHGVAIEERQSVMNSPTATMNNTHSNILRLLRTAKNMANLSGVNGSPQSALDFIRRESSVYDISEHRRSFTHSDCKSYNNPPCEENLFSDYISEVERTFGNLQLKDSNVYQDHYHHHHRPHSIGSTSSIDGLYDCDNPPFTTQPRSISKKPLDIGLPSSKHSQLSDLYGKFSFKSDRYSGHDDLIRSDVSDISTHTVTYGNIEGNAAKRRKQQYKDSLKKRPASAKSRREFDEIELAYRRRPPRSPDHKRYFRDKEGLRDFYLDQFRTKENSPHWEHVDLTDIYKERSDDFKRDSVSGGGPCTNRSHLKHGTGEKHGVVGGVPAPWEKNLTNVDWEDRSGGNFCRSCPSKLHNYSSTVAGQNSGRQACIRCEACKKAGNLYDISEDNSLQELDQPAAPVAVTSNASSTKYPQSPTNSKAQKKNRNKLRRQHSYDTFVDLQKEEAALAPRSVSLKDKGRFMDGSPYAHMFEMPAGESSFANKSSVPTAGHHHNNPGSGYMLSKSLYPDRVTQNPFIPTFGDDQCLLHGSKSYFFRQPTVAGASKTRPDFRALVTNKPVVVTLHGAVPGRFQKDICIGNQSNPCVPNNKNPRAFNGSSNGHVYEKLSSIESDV
T2 sequence (Q00959 23-1464, other chains not shown): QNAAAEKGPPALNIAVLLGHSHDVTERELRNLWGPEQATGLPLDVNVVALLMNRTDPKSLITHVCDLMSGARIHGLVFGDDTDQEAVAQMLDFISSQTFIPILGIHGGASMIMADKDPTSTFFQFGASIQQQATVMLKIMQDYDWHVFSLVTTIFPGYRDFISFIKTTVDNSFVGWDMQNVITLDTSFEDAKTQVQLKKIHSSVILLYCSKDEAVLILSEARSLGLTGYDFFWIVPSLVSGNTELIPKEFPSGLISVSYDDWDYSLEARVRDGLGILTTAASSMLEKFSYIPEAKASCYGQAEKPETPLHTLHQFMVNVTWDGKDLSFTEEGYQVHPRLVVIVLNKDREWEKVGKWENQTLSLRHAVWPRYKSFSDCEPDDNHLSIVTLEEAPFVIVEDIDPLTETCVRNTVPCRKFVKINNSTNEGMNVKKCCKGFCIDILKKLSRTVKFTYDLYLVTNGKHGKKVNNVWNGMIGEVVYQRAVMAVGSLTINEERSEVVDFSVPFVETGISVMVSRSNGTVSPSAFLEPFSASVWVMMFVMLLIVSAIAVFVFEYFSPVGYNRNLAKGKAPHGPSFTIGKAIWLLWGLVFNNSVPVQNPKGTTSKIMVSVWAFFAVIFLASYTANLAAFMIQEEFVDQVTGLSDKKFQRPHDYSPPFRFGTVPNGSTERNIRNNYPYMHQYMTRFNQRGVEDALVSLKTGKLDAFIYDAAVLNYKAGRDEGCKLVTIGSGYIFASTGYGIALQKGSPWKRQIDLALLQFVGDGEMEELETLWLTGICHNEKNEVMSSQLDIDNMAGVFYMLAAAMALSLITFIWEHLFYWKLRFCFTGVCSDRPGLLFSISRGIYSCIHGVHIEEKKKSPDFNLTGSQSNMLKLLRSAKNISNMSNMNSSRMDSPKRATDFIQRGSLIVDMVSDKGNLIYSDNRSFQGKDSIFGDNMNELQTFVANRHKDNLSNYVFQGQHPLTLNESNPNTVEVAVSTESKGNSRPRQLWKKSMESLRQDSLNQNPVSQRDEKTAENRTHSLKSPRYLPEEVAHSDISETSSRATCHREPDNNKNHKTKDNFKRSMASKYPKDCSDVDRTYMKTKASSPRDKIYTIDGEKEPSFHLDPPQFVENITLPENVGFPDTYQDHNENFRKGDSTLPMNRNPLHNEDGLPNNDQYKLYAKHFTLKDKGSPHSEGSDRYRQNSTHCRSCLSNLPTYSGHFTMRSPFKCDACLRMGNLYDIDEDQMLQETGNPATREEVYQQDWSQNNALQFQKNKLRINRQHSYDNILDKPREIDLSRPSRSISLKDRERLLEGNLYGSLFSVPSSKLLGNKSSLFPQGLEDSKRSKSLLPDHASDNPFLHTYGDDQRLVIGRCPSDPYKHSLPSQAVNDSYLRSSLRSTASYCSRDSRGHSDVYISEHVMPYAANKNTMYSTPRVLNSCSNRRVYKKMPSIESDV

## COc1cccc(/C=N/NC(=O)c2ccccc2I)c1O [Npam66, (E)-N′-(2-hydroxy-3-methoxybenzylidene)-2-iodobenzohydrazide]
[1]; HEK293, Table 2, 25 μM, read-out: Normalized Potentiation GluN1/GluN2B
  activation at 25 µM: -20.9 ± 3.69%
[2]
  activation at 100 µM: 45.7 ± 3.87%

## O=C(N/N=C/c1cccc(O)c1O)c1cc(O)cc(O)c1 [Npam70, (E)-N′-(2,3-dihydroxybenzylidene)-3,5-dihydroxybenzohydrazide]
[1]; [3]
  activation at 50 µM: -45.6 ± 3.67%
[2]
  activation at 50 µM: -24.1 ± 2.47%

## Cc1cccc(C(=O)N/N=C/c2cccc(O)c2O)c1 [Npam71, (E)-N′-(2,3-dihydroxybenzylidene)-3-methylbenzohydrazide]
[1]; [3]
  activation at 50 µM: -48.6 ± 4.77%
[2]
  activation at 50 µM: 41.7 ± 6.78%

## O=C(N/N=C/c1cccc(O)c1O)c1cccc([N+](=O)[O-])c1 [Npam64, (E)-N′-(2,3-dihydroxybenzylidene)-3-nitrobenzohydrazide]
[1]; [3]
  activation at 100 µM: -54.6 ± 5.87%
[2]
  activation at 100 µM: 28.2 ± 2.47%

## COc1cc(Cl)cc(/C=N/NC(=O)c2ccccc2Br)c1O [Npam75, (E)-2-bromo-N′-(5-chloro-2-hydroxy-3-methoxybenzylidene)benzohydrazide]
[1]; [3]
  activation at 100 µM: -17 ± 2.14%
[2]
  activation at 100 µM: 57.2 ± 3.78%

## Cc1cc2ccccc2cc1C(=O)N/N=C/c1cccc(O)c1O [Npam65, (E)-N′-(2,3-dihydroxybenzylidene)-3-methyl-2-naphthohydrazide]
[1]; [3]
  activation at 50 µM: -46.9 ± 8.94%
[2]
  activation at 50 µM: 51.8 ± 6.55%

## CCOc1cc(Cl)c(Cl)c(/C=N/NC(=O)c2cncc(Br)c2)c1O [Npam06, (E)-5-bromo-N′-(2,3-dichloro-5-ethoxy-6-hydroxybenzylidene)nicotinohydrazide]
[2]
  Normalized Potentiation: 201.19 ± 14.63%

## CCOc1cc(Cl)c(Cl)c(/C=N/NC(=O)c2cccc(Br)c2C)c1OC [Npam51, 3-bromo-N′-[(1E)-(2,3-dichloro-5-ethoxy-6-methoxyphenyl)methylidene]-2-methylbenzohydrazide]
[2]
  Normalized Potentiation: 33.37 ± 6.39%

## O=C(N/N=C/c1cccc(O)c1O)c1cccc(I)c1 [Npam30, (E)-N′-(2,3-dihydroxybenzylidene)-3-iodobenzohydrazide]
[1]; [3]
  activation at 100 µM: -100 ± 2.83%
[2]
  activation at 100 µM: 52.7 ± 4.87%
  Normalized Potentiation: 3.99 ± 4.92%

## O=C(N/N=C/c1cccc(O)c1O)c1cccc(Br)c1 [Npam16, (E)-3-bromo-N′-(2,3-dihydroxybenzylidene)benzohydrazide]
[2]
  Normalized Potentiation: 36.90 ± 5.62%

## CCOc1cc(Cl)cc(/C=N/NC(=O)c2ccccc2Br)c1O [Npam80, (E)-2-bromo-N′-(5-chloro-3-ethoxy-2-hydroxybenzylidene)benzohydrazide]
[2]
  Normalized Potentiation: 213.60 ± 29.34%

## CCOc1cc(Br)cc(/C=N/NC(=O)c2cccc(Br)c2)c1O [Npam38, (E)-3-bromo-N′-(5-bromo-3-ethoxy-2-hydroxybenzylidene)benzohydrazide]
[2]
  Normalized Potentiation: 426.44 ± 87.65%
  EC50: 190 nM

## CCOc1cc(Cl)cc(/C=N/NC(=O)c2ccccc2Br)c1O [Npam18, (E)-2-bromo-N′-(5-chloro-3-ethoxy-2-hydroxybenzylidene)benzohydrazide]
[2]
  Normalized Potentiation: 213.58 ± 43.58%

## CCOc1cccc(/C=N/NC(=O)c2ccccc2Br)c1O [Npam31, 2-bromo-N′-[(1E)-(3-ethoxy-2-hydroxyphenyl)methylidene]benzohydrazide]
[2]
  Normalized Potentiation: 15.11 ± 8.78%

## COc1cc(Br)c(Br)c(/C=N/NC(=O)c2ccccc2Cl)c1O [Npam45, (E)-2-chloro-N′-(2,3-dibromo-6-hydroxy-5-methoxybenzylidene)benzohydrazide]
[2]
  Normalized Potentiation: 284.50 ± 85.20%

## COc1cc(Br)cc(/C=N/NC(=O)c2ccc(NC(=O)c3ccc(C)cc3)cc2)c1O [Npam25, (E)-N-(4-(2-(5-bromo-2-hydroxy-3-methoxybenzylidene)hydrazinecarbonyl)phenyl)-4-methylbenzamide]
[2]
  Normalized Potentiation: −14.32 ± 2.20%

## COc1cc(Br)c(Br)c(/C=N/NC(=O)c2cccc(F)c2)c1O [Npam37, (E)-N′-(2,3-dibromo-6-hydroxy-5-methoxybenzylidene)-3-fluorobenzohydrazide]
[2]
  Normalized Potentiation: 435.94 ± 156.01%

## COc1cc(Br)c(Br)c(/C=N/NC(=O)c2ccc(Cl)cc2)c1O [Npam13, (E)-4-chloro-N′-(2,3-dibromo-6-hydroxy-5-methoxybenzylidene)benzohydrazide]
[2]
  Normalized Potentiation: 195.38 ± 40.11%

## COc1cccc(/C=N/NC(=O)c2ccccc2)c1O [Npam69, (E)-N′-(2-hydroxy-3-methoxybenzylidene)benzohydrazide]
[1]; [3]
  activation at 50 µM: -34 ± 2.47%
[2]
  activation at 50 µM: 11.1 ± 1.98%

## COc1cc([N+](=O)[O-])cc(/C=N/NC(=O)c2ccccc2C)c1O [Npam72, (E)-N′-(2-hydroxy-3-methoxy-5-nitrobenzylidene)-2-methylbenzohydrazide]
[1]; [3]
  activation at 100 µM: -24.2 ± 4.55%
[2]; FIG. 2, HEK293 cells expressing GluN1/GluN2A and GluN1/GluN2B
  Selectivity for GluN1/GluN2A versus GluN1/GluN2B NMDARs: selective for GluN1/GluN2A NMDARs
[2]
  activation at 100 µM: 118 ± 18.5%

## CC(C(O)c1ccc(O)cc1)N1CCC(Cc2ccccc2)CC1 (stereo not drawn) [ifenprodril, reference compound]
[1]
  Block of GluN1/GluN2B NMDAR currents: successfully blocked

## CCOc1cc(Br)cc(/C=N/NC(=O)c2cccc(C)c2C)c1O [Npam15, (E)-N′-(5-bromo-3-ethoxy-2-hydroxybenzylidene)-2,3-dimethylbenzohydrazide]
[2]
  Normalized Potentiation: 89.84 ± 27.86%

## CCOc1cc(Br)cc(/C=N/NC(=O)c2ccccc2Cl)c1O [Npam54, N′-[(1E)-(5-bromo-3-ethoxy-2-hydroxyphenyl)methylidene]-2-chlorobenzohydrazide]
[2]
  Normalized Potentiation: 43.41 ± 13.48%

## CCOc1cc(Br)cc(/C=N/NC(=O)c2ccccc2N)c1O [Npam21, (E)-2-amino-N′-(5-bromo-3-ethoxy-2-hydroxybenzylidene)benzohydrazide]
[2]
  Normalized Potentiation: 37.27 ± 4.64%

## CCOc1cc(Cl)c(Cl)c(/C=N/NC(=O)c2ccc(OC)cc2)c1O [Npam48, (E)-N′-(2,3-dichloro-5-ethoxy-6-hydroxybenzylidene)-4-methoxybenzohydrazide]
[2]
  Normalized Potentiation: 441.05 ± 150.41%
  EC50: 100 nM

## CCOc1cc(Cl)c(Cl)c(/C=N/NC(=O)c2cccc(Br)c2C)c1O [Npam50, 3-bromo-N′-[(1E)-(2,3-dichloro-5-ethoxy-6-hydroxyphenyl)methylidene]-2-methylbenzohydrazide]
[2]
  Normalized Potentiation: 441.11 ± 36.50%
  EC50: 250 nM

## CCOc1cc(Cl)c(Cl)c(/C=N/NC(=O)c2ccccc2C)c1O [Npam17, (E)-N′-(2,3-dichloro-5-ethoxy-6-hydroxybenzylidene)-2-methylbenzohydrazide]
[2]
  Normalized Potentiation: 130.54 ± 13.63%

## COc1cc(Br)c(Br)c(/C=N/NC(=O)c2ccccc2)c1O [Npam59, (E)-N′-(2,3-dibromo-6-hydroxy-5-methoxybenzylidene)benzohydrazide]
[2]
  Normalized Potentiation: 441.71 ± 65.24%
  EC50: 90 nM

## CCOc1cc(Cl)c(Cl)c(/C=N/NC(=O)c2ccccc2)c1O [Npam55, (E)-N′-(2,3-dichloro-5-ethoxy-6-hydroxybenzylidene)benzohydrazide]
[2]
  Normalized Potentiation: 32.10 ± 3.02%

## COc1cc(Br)cc(/C=N/NC(=O)c2cccc(Br)c2)c1O [Npam47, (E)-3-bromo-N′-(5-bromo-2-hydroxy-3-methoxybenzylidene)benzohydrazide]
[2]
  Normalized Potentiation: 224.79 ± 24.78%
